Measured values reported in patent publication US6972296B2, “Carboxylic acid derivatives that inhibit the binding of integrins to their receptors” (Encysive Pharmaceuticals Inc., priority 1999, dated 2005).
One block for each compound: values may come before it.

Target: T1, α4β1 integrin (Homo sapiens, UniProt P05556+P13612)
T1 construct: endogenous in cells; host or cells: Ramos cells
Experiment: Adhesion of calcein-labeled Ramos cells to CS1 (fibronectin) peptide conjugated ovalbumin
Type: cell-based
Conditions: Ramos cell adhesion to CS1 conjugated ovalbumin
Method in brief: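 Plates bearing CS1 fibronectin peptide coupled to ovalbumin (0.5 μg/ml coat, 3% BSA block) received calcein-labelled Ramos cells plus compound (100 μM stated) for 30 min at 37 °C. Buffer was TBS pH 7.5 with 1 mM Mg2+, Ca2+, Mn2+; bound cells quantified by fluorescence after lysis; […].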

[1] = Table 7, dose required to give 50% inhibition
[2] = Table 5, dose required to give 50% inhibition

T1 sequence (P13612 34-1032): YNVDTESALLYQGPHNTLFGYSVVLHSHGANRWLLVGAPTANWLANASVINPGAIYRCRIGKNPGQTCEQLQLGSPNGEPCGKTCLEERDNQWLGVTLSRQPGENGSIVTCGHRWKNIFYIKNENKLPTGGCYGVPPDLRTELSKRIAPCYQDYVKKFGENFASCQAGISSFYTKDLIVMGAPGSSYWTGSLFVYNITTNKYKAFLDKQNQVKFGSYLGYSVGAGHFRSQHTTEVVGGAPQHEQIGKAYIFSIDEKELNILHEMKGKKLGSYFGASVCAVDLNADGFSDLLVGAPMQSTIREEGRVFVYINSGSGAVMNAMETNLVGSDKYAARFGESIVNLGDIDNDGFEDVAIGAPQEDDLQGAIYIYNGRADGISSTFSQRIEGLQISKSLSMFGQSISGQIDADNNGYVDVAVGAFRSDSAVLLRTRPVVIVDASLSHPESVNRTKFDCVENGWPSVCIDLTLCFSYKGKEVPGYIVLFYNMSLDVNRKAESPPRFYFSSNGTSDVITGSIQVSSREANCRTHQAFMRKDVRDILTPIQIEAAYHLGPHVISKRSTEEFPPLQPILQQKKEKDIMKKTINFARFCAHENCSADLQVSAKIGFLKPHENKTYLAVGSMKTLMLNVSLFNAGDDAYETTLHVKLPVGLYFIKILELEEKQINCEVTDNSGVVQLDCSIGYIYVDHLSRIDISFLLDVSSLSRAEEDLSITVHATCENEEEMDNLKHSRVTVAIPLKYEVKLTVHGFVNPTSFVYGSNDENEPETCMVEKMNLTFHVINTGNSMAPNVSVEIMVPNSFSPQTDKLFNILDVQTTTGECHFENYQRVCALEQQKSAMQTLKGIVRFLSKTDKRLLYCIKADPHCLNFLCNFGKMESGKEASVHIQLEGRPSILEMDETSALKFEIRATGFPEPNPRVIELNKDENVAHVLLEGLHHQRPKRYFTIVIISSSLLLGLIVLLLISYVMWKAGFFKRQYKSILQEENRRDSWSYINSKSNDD
T1 sequence (P05556 21-798): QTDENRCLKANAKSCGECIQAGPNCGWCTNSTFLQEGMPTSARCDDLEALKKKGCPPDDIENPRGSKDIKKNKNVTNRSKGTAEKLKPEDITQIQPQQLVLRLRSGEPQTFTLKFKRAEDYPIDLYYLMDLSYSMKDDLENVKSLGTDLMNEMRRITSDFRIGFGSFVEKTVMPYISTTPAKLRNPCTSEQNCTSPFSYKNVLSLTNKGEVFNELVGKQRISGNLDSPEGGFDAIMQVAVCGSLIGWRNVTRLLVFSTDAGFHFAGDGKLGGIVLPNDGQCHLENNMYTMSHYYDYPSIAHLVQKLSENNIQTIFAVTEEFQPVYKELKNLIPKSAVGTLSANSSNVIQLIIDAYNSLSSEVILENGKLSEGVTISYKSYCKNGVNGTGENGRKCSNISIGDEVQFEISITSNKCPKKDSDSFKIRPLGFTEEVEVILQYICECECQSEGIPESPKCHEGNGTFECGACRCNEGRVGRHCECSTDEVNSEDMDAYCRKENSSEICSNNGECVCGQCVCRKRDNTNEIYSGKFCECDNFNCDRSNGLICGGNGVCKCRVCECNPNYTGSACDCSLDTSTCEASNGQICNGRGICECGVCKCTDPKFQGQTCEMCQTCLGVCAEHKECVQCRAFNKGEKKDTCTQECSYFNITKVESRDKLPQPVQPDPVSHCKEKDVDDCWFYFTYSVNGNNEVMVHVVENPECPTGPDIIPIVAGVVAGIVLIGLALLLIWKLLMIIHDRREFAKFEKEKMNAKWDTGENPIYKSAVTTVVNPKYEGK

- IC50 [1]: 7 nM
Structure (SMILES): CCOc1ccc(Cl)c(Cl)c1Cn1c2c(c(O)c(NC(=O)N[C@@H](CC(=O)O)c3cccc(OCC4CC4)c3)c1=O)CCC2

- IC50 (Table 4, 30 minutes at 37° C.): 100 nM
Structure (SMILES): Cc1ccc([C@H](CC(=O)O)NC(=O)Nc2cnc(C)n(Cc3ccccc3)c2=O)cc1 [(3S)-3-[({[2-methyl-6-oxo-1-(phenylmethyl)-1,6-dihydro-5-pyrimidinyl]amino}carbonyl)amino]-3-(4-methylphenyl)propanoic acid]

- IC50 [1]: 2 nM
Structure (SMILES): CCOc1cccc(Cl)c1Cn1c2c(c(O)c(NC(=O)N[C@@H](CC(=O)O)c3ccc4cc(OC)ccc4c3)c1=O)CCC2

- IC50 [2]: 3 nM
Structure (SMILES): CCOc1cccc([C@H](CC(=O)O)NC(=O)Nc2c(O)ccn(Cc3ccccc3Cl)c2=O)c1 [(3S)-3-[({[1-(2-chlorobenzyl)-4-hydroxy-2-oxo-1,2-dihydropyridin-3-yl]amino}carbonyl)amino]-3-(3-ethoxyphenyl)propanoic acid]

- IC50 (Table 4, 30 minutes at 37° C.): 8000 nM
Structure (SMILES): Cc1ccc([C@H](CC(=O)O)NC(=O)Nc2cc(Cl)cc(Cc3ccccc3)c2O)cc1 [(3S)-3-[({[5-chloro-2-hydroxy-3-(phenylmethyl)phenyl]amino}carbonyl)amino]-3-(4-methylphenyl)propanoic acid]

- IC50 [2]: 225 nM
Structure (SMILES): O=C(O)C[C@@H](Cc1ccccn1)NC(=O)Nc1c(O)ccn(Cc2ccccc2Cl)c1=O

- IC50 [1]: 5 nM
Structure (SMILES): O=C(O)C[C@H](NC(=O)Nc1c(O)c2c(n(Cc3ccccc3Cl)c1=O)CCC2)c1cccc(OC(F)F)c1 [(3S)-3-{[({1-[(2-chlorophenyl)methyl]-4-hydroxy-2-oxo-2,5,6,7-tetrahydro-1H-cyclopenta[b]pyridin-3-yl}amino)carbonyl]amino}-3-{3-[(difluoromethyl)oxy]phenyl}propanoic acid]

- IC50 (Table 6, 30 minutes at 37° C.): 30 nM
Structure (SMILES): O=C(O)C[C@H](NC(=O)Nc1c(O)c2c(n(Cc3ccccc3Cl)c1=O)CCC2)c1cccc(OCC(F)(F)F)c1

- IC50 [1]: 19 nM
Structure (SMILES): Cc1cccc(Cl)c1Cn1c2c(c(O)c(NC(=O)N[C@@H](CC(=O)O)c3ccc(C4CC4)cc3)c1=O)CCC2

- IC50 (Table 4, 30 minutes at 37° C.): 2000 nM
Structure (SMILES): Cc1ccc([C@H](CC(=O)O)NC(=O)Nc2cccn(Cc3cc([N+](=O)[O-])ccc3Br)c2=O)cc1

- IC50 [2]: 250 nM
Structure (SMILES): Cc1ccc([C@H](CC(=O)O)NC(=O)Nc2cccn(Cc3cc(O)ccc3Cl)c2=O)cc1

- IC50 [1]: 6 nM
Structure (SMILES): COCCOc1cccc(Cl)c1Cn1c2c(c(O)c(NC(=O)N[C@@H](CC(=O)O)c3ccc(C)cc3)c1=O)CCC2

- IC50 [2]: 250 nM
Structure (SMILES): COc1ccccc1Cn1cccc(NC(=O)N[C@@H](CC(=O)O)c2ccc(C)cc2)c1=O

- IC50 (Table 4, 30 minutes at 37° C.): 1600 nM
Structure (SMILES): O=C(O)C[C@H](NC(=O)Nc1cccn(Cc2cccs2)c1=O)c1ccc(F)cc1

- IC50 [2]: 190 nM
Structure (SMILES): C[C@H](CC(=O)O)NC(=O)Nc1c(O)ccn(Cc2ccccc2Cl)c1=O

- IC50 (Table 6, 30 minutes at 37° C.): 10 nM
Structure (SMILES): CCOc1cc(OCC)cc([C@H](CC(=O)O)NC(=O)Nc2c(O)c(C)nn(Cc3ccccc3Cl)c2=O)c1

- IC50 (Table 4, 30 minutes at 37° C.): 70 nM
Structure (SMILES): Cc1cc([C@H](CC(=O)O)NC(=O)Nc2cccn(Cc3ccccc3Cl)c2=O)ccc1O

- IC50 [1]: 3 nM
Structure (SMILES): CCOc1cccc([C@H](CC(=O)O)NC(=O)Nc2c(O)c3c(n(Cc4c(OCC)ccc(Cl)c4Cl)c2=O)CCC3)c1

- IC50 [2]: 1.5 nM
Structure (SMILES): COc1cc(OC)cc([C@H](CC(=O)O)NC(=O)Nc2c(O)ccn(Cc3c(Cl)cccc3OC)c2=O)c1 [(3S)-3-[({[1-(2-chloro-6-methoxybenzyl)-4-hydroxy-2-oxo-1,2-dihydropyridin-3-yl]amino}carbonyl)amino]-3-(3,5-dimethoxyphenyl)propanoic acid]

- IC50 (Table 3, 30 minutes at 37° C.): 20 nM
Structure (SMILES): Cc1ccc([C@H](CC(=O)O)NC(=O)Nc2c(C)ccn(Cc3ccccc3F)c2=O)cc1

- IC50 [1]: 22 nM
Structure (SMILES): CCc1nn(Cc2ccccc2Cl)c(=O)c(NC(=O)N[C@@H](CC(=O)O)c2ccc(C)cc2)c1O

- IC50 (Table 4, 30 minutes at 37° C.): 3000 nM
Structure (SMILES): COc1ccc(Cn2cccc(NC(=O)N[C@@H](CC(=O)O)c3ccc4c(c3)OCO4)c2=O)cc1

- IC50 [1]: 4 nM
Structure (SMILES): Cn1ccc2cc([C@H](CC(=O)O)NC(=O)Nc3c(O)c4c(n(Cc5ccccc5Cl)c3=O)CCC4)ccc21 [(3S)-3-[({[1-(2-chlorobenzyl)-4-hydroxy-2-oxo-2,5,6,7-tetrahydro-1H-cyclopenta[b]pyridin-3-yl]amino}carbonyl)amino]-3-(1-methyl-1H-indol-5-yl)propanoic acid]
